# Source: patent publication US10016382B2, “Method for decreasing skeletal muscle damage and/or oxidative stress in mammals” (LONZA INC., priority 2014, dated 2018)
# Several values for one entry are separate records, joined by “and”; a condition that tells them apart may be missing. Equal entries are not always repeated.
# Columns and labels:
# Labrador Retrievers = assay: Activity by Actical monitors, short (sprint) runs, Example 1; type: in vivo, dog; details: Ex.1, 250 mg/d; for Activity short runs, Least Sq Mean: average of weekly short runs over 13 wk, mixed model
# Source text: Each test dog wore an Actical activity monitor from Philips Respironics on a collar for the short higher intensity runs and also wore an Actical activity monitor for the weekly longer endurance runs. The activity data was downloaded into spread sheets along with each dogs identity. Twenty four hours after each long run during the 13 wk running program each of the dogs were scored by kennel staff for soreness or any type of lameness The exercise program was decreased in a tapering program during wk 11 and 12 to allow the dogs to rest for the final long run completed on wk 13. Pre-run serum samples from each test dog was taken 24 hr before the last endurance run. The heart rate and basal body temperature was determined for each test dog prior to the last long endurance run. Exercise Regimen: Each group of dogs were put through two different types of exercise programs on a weekly basis. The exercise regimen consisted of both sprint (short runs) and endurance (long runs) type work during the 90 day period. Each group of dogs were put through a simulated amount of work that would be equal to competing in an AKC Junior Hunt Test (American […] Club) and also once a week the dogs were put through a simulated endurance run. Each group of test dogs ran the AKC Hunt Test workout 26 times during the 13 wk study which was 2 times per week. During each week, each group ran the test 2 times with 1 day rest between runs. The AKC Hunt Test workout during the initial week amounted to two days of 6 consecutive sprint type retrieves for a minimum of 100 yd each way making a total of 1200 yd per day or 2400 yd per wk. The dogs brought back a bumper (equivalent to a duck or mark) to the handler during the exercise. […] The length of time involved in the intense exercise simulating the AKC Hunt Test was approximately 10 to 15 minutes per dog each of the short run days and was equal for both treatments. The rest time between retrieves (sprints) in a set during the simulated weekly AKC Hunt Test was equal for all dogs. Performance and Recovery Time: An Actical monitor (Philips Respironics) was worn around the neck of each dog on a collar and utilized to evaluate the amount of movement (measured total movements and intensity) for each dog for the purpose of evaluating equal work between treatments and also to evaluate the individual work intensity while completing the daily retrieves. Each dog wore the Actical monitor for each long run and wore the Actical monitor for the final 15 mile run. The Actical monitor data was downloaded to a computer for evaluation. Statistical Methods: GraphPad Prism 6.0 was used to compare means between groups for run time, food intake, body weight, and changes in blood chemistry using an unpaired t-test. Results were considered significant if a p-value of 0.05 was obtained. JMP 10.0.2 was used to create a mixed model for long runs, short runs, body composition, and blood chemistry.
# canine myoglobin = assay: Serum canine myoglobin, Example 2 part one; type: in vivo, dog; details: for Serum myoglobin: Ex.2 part one, 250 mg/d; for Myoglobin: serum
# Method: Twenty-four hours after test dogs ran the last 15 mile endurance run, serum samples were taken to evaluate biomarkers for muscle damage and antioxidant status. Blood samples were taken 1) just prior to the beginning of the study; 2) 1 day prior to running the final 15 mile run on the 14th week; 3) 1 hour immediately following the 15 mile run; and 4) 24 hours following the final 15 mile run. After a blood sample was drawn, it was allowed to clot for 30 minutes at 25° C. before being centrifuged for 15 minutes at 2000 g at 4° C. Serum was aliquoted into 0.65 mL microcentrifuge tubes and stored at −80° C. until being assayed at the end of the study for creatine kinase, canine myoglobin, thiobarbituric acid reactive substances (TBARS), and total antioxidant capacity (TAC) using the commercially available kits described in Example 1.
compound,measurement,setting,value
C[N+](C)(C)C[C@H](O)CC(=O)[O-] [L-carnitine],"Activity short runs, APM/lb Mean","Labrador Retrievers; Week 3, both sexes",1479 Movements/Mile/LB BW
same,"Activity short runs, APM/lb Mean","Labrador Retrievers; Week 3, females",1636 Movements/Mile/LB BW
same,"Activity short runs, APM/lb Mean","Labrador Retrievers; Week 3, males",1338 Movements/Mile/LB BW
same,"Activity short runs, APM/lb Mean","Labrador Retrievers; Week 4, both sexes",1402 Movements/Mile/LB BW
same,"Activity short runs, APM/lb Mean","Labrador Retrievers; Week 4, females",1608 Movements/Mile/LB BW
same,"Activity short runs, APM/lb Mean","Labrador Retrievers; Week 4, males",1234 Movements/Mile/LB BW
same,"Activity short runs, APM/lb Mean","Labrador Retrievers; Week 5, both sexes",1314 Movements/Mile/LB BW
same,"Activity short runs, APM/lb Mean","Labrador Retrievers; Week 5, females",1362 Movements/Mile/LB BW
same,"Activity short runs, APM/lb Mean","Labrador Retrievers; Week 5, males",1275 Movements/Mile/LB BW
same,"Activity short runs, APM/lb Mean","Labrador Retrievers; Week 6, both sexes",1375 Movements/Mile/LB BW
same,"Activity short runs, APM/lb Mean","Labrador Retrievers; Week 6, females",1340 Movements/Mile/LB BW
same,"Activity short runs, APM/lb Mean","Labrador Retrievers; Week 6, males",1403 Movements/Mile/LB BW
same,"Activity short runs, APM/lb Mean","Labrador Retrievers; Week 7, both sexes",1380 Movements/Mile/LB BW
same,"Activity short runs, APM/lb Mean","Labrador Retrievers; Week 7, females",1347 Movements/Mile/LB BW
same,"Activity short runs, APM/lb Mean","Labrador Retrievers; Week 7, males",1407 Movements/Mile/LB BW
same,"Activity short runs, APM/lb Mean","Labrador Retrievers; Week 8, both sexes",1249 Movements/Mile/LB BW
same,"Activity short runs, APM/lb Mean","Labrador Retrievers; Week 8, females",1330 Movements/Mile/LB BW
same,"Activity short runs, APM/lb Mean","Labrador Retrievers; Week 8, males",1183 Movements/Mile/LB BW
same,"Activity short runs, APM/lb Mean","Labrador Retrievers; Week 9, both sexes",1234 Movements/Mile/LB BW
same,"Activity short runs, APM/lb Mean","Labrador Retrievers; Week 9, females",1388 Movements/Mile/LB BW
same,"Activity short runs, APM/lb Mean","Labrador Retrievers; Week 9, males",1108 Movements/Mile/LB BW
same,"Activity short runs, APM/lb Mean","Labrador Retrievers; Week 10, both sexes",1114 Movements/Mile/LB BW
same,"Activity short runs, APM/lb Mean","Labrador Retrievers; Week 10, females",1222 Movements/Mile/LB BW
same,"Activity short runs, APM/lb Mean","Labrador Retrievers; Week 10, males",1026 Movements/Mile/LB BW
same,"Activity short runs, APM/lb Mean","Labrador Retrievers; Week 11, both sexes",1111 Movements/Mile/LB BW
same,"Activity short runs, APM/lb Mean","Labrador Retrievers; Week 11, females",1128 Movements/Mile/LB BW
same,"Activity short runs, APM/lb Mean","Labrador Retrievers; Week 11, males",1098 Movements/Mile/LB BW
same,"Activity short runs, APM/lb Mean","Labrador Retrievers; Week 12, both sexes",2500 Movements/Mile/LB BW
same,"Activity short runs, APM/lb Mean","Labrador Retrievers; Week 12, females",2804 Movements/Mile/LB BW
same,"Activity short runs, APM/lb Mean","Labrador Retrievers; Week 12, males",2251 Movements/Mile/LB BW
same,"Activity short runs, APM/lb Mean","Labrador Retrievers; Week 13, both sexes",1741 Movements/Mile/LB BW
same,"Activity short runs, APM/lb Mean","Labrador Retrievers; Week 13, females",1661 Movements/Mile/LB BW
same,"Activity short runs, APM/lb Mean","Labrador Retrievers; Week 13, males",1806 Movements/Mile/LB BW
same,"Activity short runs, Least Sq Mean",Labrador Retrievers; both sexes,1451 Movements/Mile/LB BW and 1451.0357 Movements/Mile/LB BW
same,"Activity short runs, Least Sq Mean",Labrador Retrievers; females,1522 Movements/Mile/LB BW and 1528.6226 Movements/Mile/LB BW
same,"Activity short runs, Least Sq Mean",Labrador Retrievers; males,1373.4487 Movements/Mile/LB BW
same,Serum myoglobin,canine myoglobin; post-run 1 hour,23.83 ng/mL
same,Serum myoglobin,canine myoglobin; post-run 24 hour,9.25 ng/mL
same,Myoglobin,"canine myoglobin; FEMALES, Baseline",17.33 ± 4.7 ng/mL
same,Myoglobin,"canine myoglobin; FEMALES, Post-Run 1 Hr",25.19 ± 4.25 ng/mL
same,Myoglobin,"canine myoglobin; FEMALES, Post-Run 24 Hr",8.08 ± 2.83 ng/mL
same,Myoglobin,"canine myoglobin; FEMALES, Pre-Run",4.88 ± 1.24 ng/mL
same,Myoglobin,"canine myoglobin; MALES, Baseline",22.22 ± 6.92 ng/mL
same,Myoglobin,"canine myoglobin; MALES, Post-Run 1 Hr",22.46 ± 4.41 ng/mL
same,Myoglobin,"canine myoglobin; MALES, Post-Run 24 Hr",4.41 ± 0.64 ng/mL
same,Myoglobin,"canine myoglobin; MALES, Pre-Run",8.69 ± 3.25 ng/mL
same,Myoglobin,"canine myoglobin; Whole Groups, Baseline",19.78 ± 4.13 ng/mL
same,Myoglobin,"canine myoglobin; Whole Groups, Post-Run 1 Hr, Post-Run 1 Hr",23.83 ± 3.02 ng/mL
same,Myoglobin,"canine myoglobin; Whole Groups, Post-Run 24 Hr, Post-Run 24 Hr",6.25 ± 1.47 ng/mL
same,Myoglobin,"canine myoglobin; Whole Groups, Pre-Run",6.78 ± 1.74 ng/mL
